Several values for one entry are separate records, joined by “and”; a condition that tells them apart may be missing. Equal entries are not always repeated. Some results are limits rather than exact numbers.

2 molecules from PubChem BioAssay AID1919003 (Molecular Pharmacology Branch, DTP, NCI, 2023) can be followed below.

This assay relates to 786-0 complex spheroids with HUVEC/MSC, growth % test/control. Put plainly: Anticancer human tumor 786-0 cell line growth inhibition [AhR].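 On all read-outs here: compound exposure lasted seven days before the read-out.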 As to conditions: for viability, T/C: stronger effect = lower value. The method, boiled down:
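Spheroids combined tumor cells with HUVEC endothelial cells and human MSCs as stroma. AhR antagonists were paired with standard or investigational drugs, each dosed in half-log steps down from near clinical Cmax, or from 10 microM where Cmax was unknown.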

The term IC50 denotes the concentration that inhibits the measured activity by half. For orientation: viability, T/C means the ratio of treated to control. For `CCN(c1cc(-c2ccc(CN3CCOCC3)cc2)cc(C(=O)NCc2c(C)cc(C)[nH]c2=O)c1C)C1CCOCC1` + Cc1ccccc1N=Nc1ccc(NC(=O)c2ccnn2C)c(C)c1, the IC50 was above 3 µM (curve of first compound, second compound 0.1 µM); above 3 µM (curve of first compound, second compound 0.316 µM); above 3 µM (curve of first compound, second compound 1 µM); above 3 µM (curve of first compound, second compound 3.16 µM); above 3 µM (curve of first compound, second compound 10 µM). For the same molecule, the viability, T/C (second compound 0.1 µM, first compound 0.00949 µM) is 106%; the viability, T/C (second compound 0.1 µM, first compound 0.03 µM) was 104%; the viability, T/C (second compound 0.1 µM, first compound 0.0949 µM) is 98.3%; the viability, T/C (second compound 0.1 µM, first compound 0.3 µM) is 107%; the viability, T/C (second compound 0.1 µM, first compound 0.949 µM) is 101%; the viability, T/C (second compound 0.1 µM, first compound 3 µM) is 110%. For the same molecule, the viability, T/C reads like this: (second compound 0.316 µM, first compound 0.00949 µM) 104%; (second compound 0.316 µM, first compound 0.03 µM) 106%; (second compound 0.316 µM, first compound 0.0949 µM) 116%; (second compound 0.316 µM, first compound 0.3 µM) 111%; (second compound 0.316 µM, first compound 0.949 µM) 119%; (second compound 0.316 µM, first compound 3 µM) 118%. The viability, T/C is 112% (second compound 1 µM, first compound 0.00949 µM); 106% (second compound 1 µM, first compound 0.03 µM); 106% (second compound 1 µM, first compound 0.0949 µM); 97.4% (second compound 1 µM, first compound 0.3 µM); 102% (second compound 1 µM, first compound 0.949 µM); 98.6% (second compound 1 µM, first compound 3 µM). The viability, T/C reads like this: (second compound 3.16 µM, first compound 0.00949 µM) 109%; (second compound 3.16 µM, first compound 0.03 µM) 114%; (second compound 3.16 µM, first compound 0.0949 µM) 102%; (second compound 3.16 µM, first compound 0.3 µM) 93.3%; (second compound 3.16 µM, first compound 0.949 µM) 116%; (second compound 3.16 µM, first compound 3 µM) 94.2%. The viability, T/C is, setting by setting: (second compound 10 µM, first compound 0.00949 µM) 106%; (second compound 10 µM, first compound 0.03 µM) 102%; (second compound 10 µM, first compound 0.0949 µM) 89.2%; (second compound 10 µM, first compound 0.3 µM) 100%; (second compound 10 µM, first compound 0.949 µM) 98.3%; (second compound 10 µM, first compound 3 µM) 103%.

Take `COc1ccc([C@@H](O)c2cc(-c3ncnc4cc(N5CCOCC5)ccc34)c(F)cc2Cl)nn1`: the viability, T/C is, setting by setting: (compound 0.0316 µM) 96.7% and 103% and 114%; (compound 0.1 µM) 93.2% and 100% and 104%; (compound 0.316 µM) 98.7% and 110% and 115%; (compound 1 µM) 84.7% and 105% and 108%; (compound 3.16 µM) 91.4% and 103% and 111%; (compound 10 µM) 70.2% and 91.1% and 85.7%. Besides, the IC50 (curve of compound) is above 10 µM.
